In ChEMBL document CHEMBL1909046, “DrugMatrix in vitro pharmacology data”:

Key:
[1] = molecular target: Melanocortin receptor 5 (Homo sapiens, UniProt P33032); type: cell membranes, HEK293, Membrane; details: hek293; also: in other assays of this panel Not Active means under 50% inhibition at 10 µM
[2] = molecular target: Delta-type opioid receptor (Homo sapiens, UniProt P41143); type: cell membranes, HEK293, Membrane; details: hek293; also: in other assays of this panel Not Active means under 50% inhibition at 10 µM
Sequence of Delta-type opioid receptor (P41143 whole entry): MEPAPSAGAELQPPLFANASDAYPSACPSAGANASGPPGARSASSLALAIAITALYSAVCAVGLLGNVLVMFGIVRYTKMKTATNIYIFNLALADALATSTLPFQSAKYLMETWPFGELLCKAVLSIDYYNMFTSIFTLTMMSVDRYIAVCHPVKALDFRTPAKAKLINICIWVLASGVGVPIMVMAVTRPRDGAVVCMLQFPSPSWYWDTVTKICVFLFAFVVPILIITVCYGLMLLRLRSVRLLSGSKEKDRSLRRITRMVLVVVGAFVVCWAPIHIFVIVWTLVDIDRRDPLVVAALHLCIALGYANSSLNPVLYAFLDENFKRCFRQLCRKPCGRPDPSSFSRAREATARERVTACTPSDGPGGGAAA

[3] = DRUGMATRIX: Glutamate, NMDA, Agonism radioligand binding (ligand: [3H] CGP-39653); type: cell membranes, Rattus norvegicus, Wistar, Cerebral cortex, Membrane; details: Not Active = under 50% inhibition at 10 µM
[4] = molecular target: Cytochrome P450 2D6 (Homo sapiens, UniProt P10635); details: bti-tn-5b1-4; also: in other assays of this panel Not Active means under 50% inhibition at 10 µM
Sequence of Cytochrome P450 2D6 (P10635 whole entry): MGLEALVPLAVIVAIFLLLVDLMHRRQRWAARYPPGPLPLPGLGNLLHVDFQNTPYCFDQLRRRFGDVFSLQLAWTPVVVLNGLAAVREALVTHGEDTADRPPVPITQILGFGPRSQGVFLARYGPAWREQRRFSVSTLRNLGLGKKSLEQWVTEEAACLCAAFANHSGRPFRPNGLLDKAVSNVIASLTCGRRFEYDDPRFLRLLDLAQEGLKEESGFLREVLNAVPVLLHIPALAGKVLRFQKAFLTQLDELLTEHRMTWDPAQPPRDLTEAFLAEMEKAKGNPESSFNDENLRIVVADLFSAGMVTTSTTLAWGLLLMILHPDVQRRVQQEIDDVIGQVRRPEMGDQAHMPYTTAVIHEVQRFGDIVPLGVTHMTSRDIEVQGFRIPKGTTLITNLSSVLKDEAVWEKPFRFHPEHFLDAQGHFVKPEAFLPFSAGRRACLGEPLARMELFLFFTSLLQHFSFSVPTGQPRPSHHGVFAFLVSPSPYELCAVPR

[5] = DRUGMATRIX: Platelet-Derived Growth Factor (PDGF) radioligand binding (ligand: [125I] PDGF); type: cell-based; details: nih3t3; Not Active = under 50% inhibition at 10 µM
[6] = molecular target: Tyrosine-protein kinase Fyn (Homo sapiens, UniProt P06241); assay: biochemical; type: cell-based, Insect cells;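 also: enzymatic inhibition of Fyn kinase activity measured with Poly(Glu:Tyr) as the phosphorylation substrate; in other assays of this panel Not Active means under 50% inhibition at 10 µM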
Sequence of Tyrosine-protein kinase Fyn (P06241 whole entry): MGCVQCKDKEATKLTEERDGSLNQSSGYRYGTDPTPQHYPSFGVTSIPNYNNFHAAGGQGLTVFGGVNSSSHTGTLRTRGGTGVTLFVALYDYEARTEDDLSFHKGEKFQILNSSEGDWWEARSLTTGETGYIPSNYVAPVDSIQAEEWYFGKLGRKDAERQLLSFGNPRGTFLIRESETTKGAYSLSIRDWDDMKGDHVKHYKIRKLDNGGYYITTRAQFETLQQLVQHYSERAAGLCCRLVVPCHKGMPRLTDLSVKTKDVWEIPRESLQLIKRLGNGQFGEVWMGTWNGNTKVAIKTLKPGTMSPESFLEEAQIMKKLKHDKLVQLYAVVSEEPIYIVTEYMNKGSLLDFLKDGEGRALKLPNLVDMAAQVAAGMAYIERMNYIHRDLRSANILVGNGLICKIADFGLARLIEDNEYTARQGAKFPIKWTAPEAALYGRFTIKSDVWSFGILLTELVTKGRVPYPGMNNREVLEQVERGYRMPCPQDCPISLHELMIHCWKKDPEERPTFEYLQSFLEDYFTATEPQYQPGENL

[7] = molecular target: T1, Muscarinic acetylcholine receptor M5 (Homo sapiens, UniProt P08912); type: cell membranes, Membrane; details: cho-k1; also: in other assays of this panel Not Active means under 50% inhibition at 10 µM
T1 sequence (P08912 whole entry): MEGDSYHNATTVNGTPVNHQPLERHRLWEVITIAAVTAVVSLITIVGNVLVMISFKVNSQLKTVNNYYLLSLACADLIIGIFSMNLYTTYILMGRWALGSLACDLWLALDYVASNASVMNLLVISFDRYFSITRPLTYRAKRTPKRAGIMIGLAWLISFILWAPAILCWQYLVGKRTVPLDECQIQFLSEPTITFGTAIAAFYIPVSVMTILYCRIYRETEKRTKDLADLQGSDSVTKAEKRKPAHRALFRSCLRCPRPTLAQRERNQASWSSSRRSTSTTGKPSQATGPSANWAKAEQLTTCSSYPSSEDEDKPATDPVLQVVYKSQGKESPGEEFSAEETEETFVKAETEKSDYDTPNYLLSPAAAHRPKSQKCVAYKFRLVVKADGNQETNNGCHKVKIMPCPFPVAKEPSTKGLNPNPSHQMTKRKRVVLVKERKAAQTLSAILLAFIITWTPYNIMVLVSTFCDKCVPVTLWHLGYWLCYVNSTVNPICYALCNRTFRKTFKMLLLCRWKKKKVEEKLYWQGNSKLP

[8] = molecular target: 5-hydroxytryptamine receptor 6 (Homo sapiens, UniProt P50406); type: cell membranes, HeLa, Membrane; details: hela; also: in other assays of this panel Not Active means under 50% inhibition at 10 µM
Sequence of 5-hydroxytryptamine receptor 6 (P50406 whole entry): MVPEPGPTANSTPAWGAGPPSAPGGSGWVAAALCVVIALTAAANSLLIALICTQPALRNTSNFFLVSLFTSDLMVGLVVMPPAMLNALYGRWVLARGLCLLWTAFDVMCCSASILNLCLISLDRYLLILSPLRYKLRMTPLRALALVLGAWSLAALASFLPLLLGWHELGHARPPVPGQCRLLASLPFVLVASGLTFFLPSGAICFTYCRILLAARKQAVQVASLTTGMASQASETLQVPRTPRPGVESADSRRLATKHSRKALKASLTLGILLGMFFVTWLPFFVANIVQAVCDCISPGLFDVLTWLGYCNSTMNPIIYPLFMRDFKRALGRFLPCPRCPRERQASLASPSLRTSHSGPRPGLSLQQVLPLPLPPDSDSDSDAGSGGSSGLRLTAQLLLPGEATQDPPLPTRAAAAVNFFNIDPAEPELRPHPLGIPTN

Sequence of Melanocortin receptor 5 (P33032 whole entry): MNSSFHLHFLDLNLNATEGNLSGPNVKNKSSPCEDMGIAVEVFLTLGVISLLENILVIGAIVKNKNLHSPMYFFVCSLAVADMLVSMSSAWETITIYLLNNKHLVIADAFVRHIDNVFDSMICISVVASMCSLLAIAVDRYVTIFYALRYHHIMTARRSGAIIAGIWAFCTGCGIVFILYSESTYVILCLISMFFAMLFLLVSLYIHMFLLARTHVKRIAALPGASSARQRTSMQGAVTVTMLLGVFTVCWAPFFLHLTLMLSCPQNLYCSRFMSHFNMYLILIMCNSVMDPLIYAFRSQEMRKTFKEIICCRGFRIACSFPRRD

Structure (SMILES)	IC50 [1]	IC50 [2]	IC50 [3]	Ki [3]	IC50 [4]	Ki [4]	IC50 [5]	Ki [5]	IC50 ([6]; insect cells)	IC50 [7]	IC50 [8]	IC50 ([6]; read-out: IC50)
CCOC(=O)[C@H](CCc1ccccc1)N[C@@H](C)C(=O)N1Cc2ccccc2C[C@H]1C(=O)O	Not Active	Not Active	Not Active	Not Active	Not Active	Not Active	Not Active	Not Active	Not Active	Not Active	Not Active	
CC[C@H]1OC(=O)[C@H](C)[C@@H](O[C@H]2C[C@@](C)(OC)[C@@H](O)[C@H](C)O2)[C@H](C)[C@@H](O[C@@H]2O[C@H](C)C[C@H](N(C)C)[C@H]2O)[C@](C)(O)C[C@@H](C)CN(C)[C@H](C)[C@@H](O)[C@]1(C)O [AZITHROMYCIN]	Not Active	Not Active	Not Active	Not Active	Not Active	Not Active	Not Active	Not Active	Not Active	Not Active	Not Active	
Cc1cccc(Nc2ccccc2C(=O)O)c1C [MEFENAMIC ACID]	Not Active	Not Active	Not Active	Not Active	Not Active	Not Active	Not Active	Not Active	Not Active	Not Active	Not Active	
COC(=O)c1ccccc1O [METHYL SALICYLATE]	Not Active	Not Active	Not Active	Not Active	Not Active	Not Active	Not Active	Not Active	Not Active	Not Active	Not Active	
CC[C@H](C)C(=O)O[C@H]1C[C@H](O)C=C2C=C[C@H](C)[C@H](CC[C@@H](O)C[C@@H](O)CC(=O)O)[C@H]21 [PRAVASTATIN]	Not Active	Not Active	Not Active	Not Active	Not Active	Not Active	Not Active	Not Active	Not Active	Not Active	Not Active	
C[C@]12C/C(=C/O)C(=O)C[C@@H]1CC[C@@H]1[C@@H]2CC[C@@]2(C)[C@H]1CC[C@]2(C)O [OXYMETHOLONE]	Not Active	Not Active	Not Active	Not Active	Not Active	Not Active	Not Active	Not Active	Not Active	Not Active	Not Active	
Clc1cc2c(cc1Cl)Oc1cc(Cl)c(Cl)cc1O2 [2,3,7,8-TETRACHLORODIBENZO-P-DIOXIN]	Not Active	Not Active	Not Active	Not Active	Not Active	Not Active	Not Active	Not Active	Not Active	Not Active	Not Active	
OCCO [ETHYLENE GLYCOL]	Not Active	Not Active	Not Active	Not Active	Not Active	Not Active	Not Active	Not Active	Not Active	Not Active	Not Active	
NC[C@H]1O[C@H](O[C@H]2[C@H](O)[C@@H](O[C@H]3O[C@H](CO)[C@@H](O)[C@H](N)[C@H]3O)[C@H](N)C[C@@H]2N)[C@H](O)[C@@H](O)[C@@H]1O [KANAMYCIN]	Not Active	Not Active	Not Active	Not Active	Not Active	Not Active	Not Active	Not Active	Not Active	Not Active	Not Active	
O=C(/C=C/c1ccc(O)c(O)c1)OCCc1ccccc1 [CAFFEIC ACID PHENETHYL ESTER]	Not Active	Not Active	Not Active	Not Active	Not Active	Not Active	Not Active	Not Active		Not Active	Not Active	4.21 µM
NC[C@@H]1O[C@H](O[C@H]2[C@@H](O)[C@H](O[C@@H]3[C@@H](O)[C@H](N)C[C@H](N)[C@H]3O[C@H]3O[C@H](CN)[C@@H](O)[C@H](O)[C@H]3N)O[C@@H]2CO)[C@H](N)[C@@H](O)[C@@H]1O [FRAMYCETIN]	Not Active	Not Active	Not Active	Not Active	Not Active	Not Active	Not Active	Not Active	Not Active	Not Active	Not Active	
CCCCCC[C@H]1C(=O)O[C@H](C)[C@H](NC(=O)c2cccc(NC=O)c2O)C(=O)O[C@@H](C)[C@@H]1OC(=O)CC(C)C [ANTIMYCIN A]	Not Active	Not Active	Not Active	Not Active	Not Active	Not Active	Not Active	Not Active	Not Active	Not Active	Not Active	
Oc1ccccc1O [CATECHOL]	Not Active	Not Active	Not Active	Not Active	Not Active	Not Active	Not Active	Not Active		Not Active	Not Active	17.4 µM
Cc1c(F)c(N2CCNC(C)C2)cc2c1c(=O)c(C(=O)O)cn2C1CC1 (configuration not stated) [GREPAFLOXACIN]	Not Active	Not Active	Not Active	Not Active	Not Active	Not Active	Not Active	Not Active	Not Active	Not Active	Not Active	
[N-]=[N+]=CC(=O)OC[C@H](N)C(=O)O [AZASERINE]	Not Active	Not Active	Not Active	Not Active	Not Active	Not Active	Not Active	Not Active	Not Active	Not Active	Not Active	
C#C[C@]1(O)CC[C@H]2[C@@H]3CCC4=Cc5oncc5C[C@]4(C)[C@H]3CC[C@@]21C [DANAZOL]	Not Active	Not Active	Not Active	Not Active	Not Active	Not Active	Not Active	Not Active	Not Active	Not Active	Not Active	
CO[C@H]1[C@@H](O)[C@H](N)[C@@H](O[C@H]2O[C@H]([C@H](C)N)CC[C@H]2N)[C@H](O)[C@@H]1N(C)C(=O)CN [ASTROMICIN]	Not Active	Not Active	Not Active	Not Active	Not Active	Not Active	Not Active	Not Active	Not Active	Not Active	Not Active	
COc1ccc2cc(CCC(C)=O)ccc2c1 [NABUMETONE]	Not Active	Not Active	Not Active	Not Active	Not Active	Not Active	Not Active	Not Active	Not Active	Not Active	Not Active	
N=C(N)N/N=C/c1c(Cl)cccc1Cl [GUANABENZ]	Not Active	Not Active	Not Active	Not Active	Not Active	Not Active	Not Active	Not Active	Not Active	Not Active	Not Active	
NC(=O)N1c2ccccc2C=Cc2ccccc21 [CARBAMAZEPINE]	Not Active	Not Active	Not Active	Not Active	Not Active	Not Active	Not Active	Not Active	Not Active	Not Active	Not Active	
Cc1c(N(C)CS(=O)(=O)[O-])c(=O)n(-c2ccccc2)n1C.[Na+] [DIPYRONE SODIUM]	Not Active	Not Active	Not Active	Not Active	Not Active	Not Active	Not Active	Not Active	Not Active	Not Active	Not Active	
CC[C@]1(O)CC[C@H]2[C@@H]3CCC4=CCCC[C@@H]4[C@H]3CC[C@@]21C	Not Active	Not Active	Not Active	Not Active	Not Active	Not Active	Not Active	Not Active	Not Active	Not Active	Not Active	
